According to patent US20230128114A1, “METHODS AND COMPOSITIONS FOR TREATING OR PREVENTING AN INFLAMMATORY CONDITION” (priority 2020, published 2023):
Where two headings read alike, the source gives them in different places.

Experiments:
[1] = Solubility of formulations for in vivo analysis (visual observation); type: physicochemical
Source text: Cannabidiol (CBD) and hydroxychloroquine (HCQ), were purchased by Pharmacology Discovery Services Taiwan, Ltd. The formulations are summarised in Table 3.

[2] = tested on: human peripheral blood mononuclear cells (PBMCs) stimulated with bacterial lipopolysaccharide (LPS); assay: Cytokine release from LPS-stimulated human PBMCs (checkerboard, Luminex), Bliss synergy; type: cell-based; conditions: PBMC
Method: The anti-inflammatory activity the combination of CBD and hydroxychloroquine was assessed by determining cytokine release from human peripheral blood mononuclear cells (PBMCs) stimulated with bacterial lipopolysaccharide (LPS) using a Luminex based assay. A 96-well microtitre plate-based checkerboard assay with seven concentrations (including the no drug control) of CBD and hydroxychloroquine were assessed in combination was used to determine the drug-drug interaction. Briefly, frozen PMBCs from two independent donors were thawed, diluted in culture medium, seeded into 96-well microtitre plates and incubated at 37° C., 5% CO2 for 1 hour prior to the addition of test compounds. After the addition of the test compounds the cells were returned to the incubator for 1 hour, after which LPS was added to the wells. Plates were incubated at 37° C., 5% CO2 for 24 hours. After 24 hours, cell culture supernatants were removed and analysed for cytokine levels using Luminex methodology according to manufacturers' instructions. All values had the vehicle background subtracted prior to further analysis. Three plates were set up in parallel using the PBMCs from the same donor. Inhibition of cytokine release was determined relative to the no treatment control (i.e., that was stimulated with LPS) and averaged across the three replicates. A cytotoxicity assay using AlmarBlue with the identical plate set up was performed in parallel.
Drug synergy was determined using the Bliss Independence method where the predicted effect of the drug combination is calculated using the equation: […]
Synergy values for each combination of drug concentrations were calculated using the Excess Over Bliss method (the difference between the observed and predicted inhibition) described by, e.g., Liu et al. (2018, Statistics in Biopharmaceutical Research, 10: 112-122, where a value greater than 0 is indicative of synergy and the higher the value the stronger the synergy.

## CCN(CCO)CCCC(C)Nc1ccnc2cc(Cl)ccc12 (stereo not drawn) [HCQ]
[1]
  Solubil.: S
[2]; Donor 1, HCQ 0.63 μg/mL alone, read-out: FIE (fractional inhibitory effect), IL-1α release
  inhibition at 0.63 µg/mL: 3%
[2]; Donor 1, HCQ 0.63 μg/mL alone, read-out: FIE (fractional inhibitory effect), IL-1β release
  inhibition at 0.63 µg/mL: 8%
[2]; Donor 1, HCQ 0.63 μg/mL alone, read-out: FIE (fractional inhibitory effect), IL-6 release
  inhibition at 0.63 µg/mL: 12%
[2]; Donor 1, HCQ 0.63 μg/mL alone, read-out: FIE (fractional inhibitory effect), TNF-α release
  inhibition at 0.63 µg/mL: 0%
[2]; Donor 1, HCQ 1.25 μg/mL alone, read-out: FIE (fractional inhibitory effect), IL-1α release
  inhibition at 1.25 µg/mL: 1%
[2]; Donor 1, HCQ 1.25 μg/mL alone, read-out: FIE (fractional inhibitory effect), IL-1β release
  inhibition at 1.25 µg/mL: 7%
[2]; Donor 1, HCQ 1.25 μg/mL alone, read-out: FIE (fractional inhibitory effect), IL-6 release
  inhibition at 1.25 µg/mL: 0%
[2]; Donor 1, HCQ 1.25 μg/mL alone, read-out: FIE (fractional inhibitory effect), TNF-α release
  inhibition at 1.25 µg/mL: 8%
[2]; Donor 1, HCQ 2.50 μg/mL alone, read-out: FIE (fractional inhibitory effect), IL-1α release
  inhibition at 2.5 µg/mL: 12%
[2]; Donor 1, HCQ 2.50 μg/mL alone, read-out: FIE (fractional inhibitory effect), IL-1β release
  inhibition at 2.5 µg/mL: 8%
[2]; Donor 1, HCQ 2.50 μg/mL alone, read-out: FIE (fractional inhibitory effect), IL-6 release
  inhibition at 2.5 µg/mL: 10%
[2]; Donor 1, HCQ 2.50 μg/mL alone, read-out: FIE (fractional inhibitory effect), MIP-1α release
  inhibition at 2.5 µg/mL: 0%
[2]; Donor 1, HCQ 2.50 μg/mL alone, read-out: FIE (fractional inhibitory effect), TNF-α release
  inhibition at 2.5 µg/mL: 5%
[2]; Donor 1, HCQ 5.00 μg/mL alone, read-out: FIE (fractional inhibitory effect), IL-1α release
  inhibition at 5 µg/mL: 24%
[2]; Donor 1, HCQ 5.00 μg/mL alone, read-out: FIE (fractional inhibitory effect), IL-1β release
  inhibition at 5 µg/mL: 17%
[2]; Donor 1, HCQ 5.00 μg/mL alone, read-out: FIE (fractional inhibitory effect), IL-6 release
  inhibition at 5 µg/mL: 8%
[2]; Donor 1, HCQ 5.00 μg/mL alone, read-out: FIE (fractional inhibitory effect), TNF-α release
  inhibition at 5 µg/mL: 2%
[2]; Donor 1, HCQ 10.00 μg/mL alone, read-out: FIE (fractional inhibitory effect), IL-1α release
  inhibition at 10 µg/mL: 50%
[2]; Donor 1, HCQ 10.00 μg/mL alone, read-out: FIE (fractional inhibitory effect), IL-1β release
  inhibition at 10 µg/mL: 68%
[2]; Donor 1, HCQ 10.00 μg/mL alone, read-out: FIE (fractional inhibitory effect), IL-6 release
  inhibition at 10 µg/mL: 0%
[2]; Donor 1, HCQ 10.00 μg/mL alone, read-out: FIE (fractional inhibitory effect), TNF-α release
  inhibition at 10 µg/mL: 4%
[2]; Donor 1, HCQ 20.00 μg/mL alone, read-out: FIE (fractional inhibitory effect), IL-1α release
  inhibition at 20 µg/mL: 54%
[2]; Donor 1, HCQ 20.00 μg/mL alone, read-out: FIE (fractional inhibitory effect), IL-1β release
  inhibition at 20 µg/mL: 81%
[2]; Donor 1, HCQ 20.00 μg/mL alone, read-out: FIE (fractional inhibitory effect), IL-6 release
  inhibition at 20 µg/mL: 12%
[2]; Donor 1, HCQ 20.00 μg/mL alone, read-out: FIE (fractional inhibitory effect), MIP-1α release
  inhibition at 20 µg/mL: 0%
[2]; Donor 1, HCQ 20.00 μg/mL alone, read-out: FIE (fractional inhibitory effect), TNF-α release
  inhibition at 20 µg/mL: 30%
[2]; Donor 2, HCQ 0.63 μg/mL alone, read-out: FIE (fractional inhibitory effect), IL-1α release
  inhibition at 0.63 µg/mL: 7%
[2]; Donor 2, HCQ 0.63 μg/mL alone, read-out: FIE (fractional inhibitory effect), IL-1β release
  inhibition at 0.63 µg/mL: 6%
[2]; Donor 2, HCQ 1.25 μg/mL alone, read-out: FIE (fractional inhibitory effect), IL-1α release
  inhibition at 1.25 µg/mL: 11%
[2]; Donor 2, HCQ 2.50 μg/mL alone, read-out: FIE (fractional inhibitory effect), IL-1α release
  inhibition at 2.5 µg/mL: 19%
[2]; Donor 2, HCQ 2.50 μg/mL alone, read-out: FIE (fractional inhibitory effect), IL-1β release
  inhibition at 2.5 µg/mL: 7%
[2]; Donor 2, HCQ 5.00 μg/mL alone, read-out: FIE (fractional inhibitory effect), IL-1α release
  inhibition at 5 µg/mL: 49%
[2]; Donor 2, HCQ 5.00 μg/mL alone, read-out: FIE (fractional inhibitory effect), TNF-α release
  inhibition at 5 µg/mL: 2%
[2]; Donor 2, HCQ 10.00 μg/mL alone, read-out: FIE (fractional inhibitory effect), IL-1α release
  inhibition at 10 µg/mL: 68%
[2]; Donor 2, HCQ 10.00 μg/mL alone, read-out: FIE (fractional inhibitory effect), IL-6 release
  inhibition at 10 µg/mL: 11%
[2]; Donor 2, HCQ 10.00 μg/mL alone, read-out: FIE (fractional inhibitory effect), MIP-1α release
  inhibition at 10 µg/mL: 0%
[2]; Donor 2, HCQ 10.00 μg/mL alone, read-out: FIE (fractional inhibitory effect), TNF-α release
  inhibition at 10 µg/mL: 18%
[2]; Donor 2, HCQ 20.00 μg/mL alone, read-out: FIE (fractional inhibitory effect), IL-1α release
  inhibition at 20 µg/mL: 63%
[2]; Donor 2, HCQ 20.00 μg/mL alone, read-out: FIE (fractional inhibitory effect), IL-6 release
  inhibition at 20 µg/mL: 47%
[2]; Donor 2, HCQ 20.00 μg/mL alone, read-out: FIE (fractional inhibitory effect), MIP-1α release
  inhibition at 20 µg/mL: 0%

## C=C(C)[C@@H]1CCC(C)=C[C@H]1c1c(O)cc(CCCCC)cc1O [CBD, cannabidiol]
[2]; Donor 1, CBD 5.00 μg/mL alone, read-out: FIE (fractional inhibitory effect), IL-1α release
  inhibition at 5 µg/mL: 40%
[2]; Donor 1, CBD 5.00 μg/mL alone, read-out: FIE (fractional inhibitory effect), IL-1β release
  inhibition at 5 µg/mL: 38%
[2]; Donor 1, CBD 5.00 μg/mL alone, read-out: FIE (fractional inhibitory effect), IL-6 release
  inhibition at 5 µg/mL: 8%
[2]; Donor 1, CBD 5.00 μg/mL alone, read-out: FIE (fractional inhibitory effect), MIP-1α release
  inhibition at 5 µg/mL: 12%
[2]; Donor 1, CBD 5.00 μg/mL alone, read-out: FIE (fractional inhibitory effect), TNF-α release
  inhibition at 5 µg/mL: 5%
[2]; Donor 2, CBD 5.00 μg/mL alone, read-out: FIE (fractional inhibitory effect), IL-1α release
  inhibition at 5 µg/mL: 28%
[2]; Donor 2, CBD 5.00 μg/mL alone, read-out: FIE (fractional inhibitory effect), IL-1β release
  inhibition at 5 µg/mL: 13%
[2]; Donor 2, CBD 5.00 μg/mL alone, read-out: FIE (fractional inhibitory effect), IL-6 release
  inhibition at 5 µg/mL: 9%
[2]; Donor 2, CBD 5.00 μg/mL alone, read-out: FIE (fractional inhibitory effect), MIP-1α release
  inhibition at 5 µg/mL: 0%
[2]; Donor 2, CBD 5.00 μg/mL alone, read-out: FIE (fractional inhibitory effect), TNF-α release
  inhibition at 5 µg/mL: 7%
